Measurements as given in publication PMC10258794, “To Fold or Not to Fold: Diastereomeric Optimization of an α-Helical Antimicrobial Peptide” (Journal of Medicinal Chemistry, 2023).
Converted amounts (≈) assume the structure as drawn. Where two headings read alike, the source gives them in different places.

Experiments:
HEK293 cells = assay: Alamar blue cytotoxicity, HEK293; assay type: cell-based, human; conditions: 24 h, mean ± SD, n = 3, read-out: Toxicity on HEK293 cells
Experimental: The A549 human lung adenocarcinoma cells are derived from a patient and were kindly given to us by Dr. Georgia Konstatinidou (Pharmacology Institute, Bern University). HEK293T cells were obtained from ATCC (CRL-11268). A549 and HEK293 were cultured in an incubator at 37 °C with 5% CO2 in RPMI-1640 (Gibco) and DMEM (Gibco) containing 10% fetal bovine serum (Thermo Fisher), 100 I.U./mL penicillin, and 100 μg/mL streptomycin (Gibco).
The viability of the cells was assessed with an AlamarBlue assay (ThermoFisher). Cells were seeded into 96-well plates, 4000 cells/well (HEK293) and 8000 cells/well (A549), the day before the experiment. Cells were then treated with the increasing concentration of the compound and incubated for 24 h at 37 °C in the presence of 5% CO2. The next day, the medium was removed and replaced by a 10% AlamarBlue solution in full growth medium (DMEM or RPMI-1640). The cells were incubated for 3–5 h at 37 °C with 5% CO2 in a humidified atmosphere. The fluorescence was then measured on a Tecan Infinite M1000 Pro plate reader at λex 560 nm and λem 590 nm. The value was normalized according to the untreated cells.

P. aeruginosa ZEM9A = assay: microbe, parasite or virus in culture; assay type: cell-based, Pseudomonas aeruginosa; conditions: pH 7.4
How it was run: (§1)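 A colony was grown overnight in LB at 37 °C, diluted in MH medium pH 7.4 to OD600 0.022 and added to 1/2 serial dilutions of compound (final about 5 × 10^5 CFU).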

Staphylococcus epidermis = assay: MIC broth microdilution, Staphylococcus epidermis; assay type: cell-based; conditions: pH 7.4
How it was run: as §1

K. pneumoniae Oxa-48 = assay: MIC broth microdilution, K. pneumoniae Oxa-48; assay type: cell-based, Klebsiella pneumoniae; conditions: MDR strain; MH broth pH 7.4, 16–20 h, 37 °C
How it was run: as §1

[1] = test system: Stenotrophomonas maltophilia; assay: microbe, parasite or virus in culture; assay type: cell-based; conditions: pH 7.4
How it was run: as §1

S. aureus COL MRSA = test system: S. aureus COL MRSA
How it was run: as §1

P. aeruginosa PAO1 = test system: P. aeruginosa PAO1
How it was run: as §1

[2] = test system: Pseudomonas aeruginosa, Klebsiella pneumoniae, Acinetobacter baumannii, Escherichia coli, and methicillin-resistant Staphylococcus aureus; conditions: summary of Table 1
How it was run: as §1

K. pneumoniae NCTC418 = test system: K. pneumoniae NCTC418
How it was run: as §1

E. coli W3110 = conditions: MH broth pH 7.4, 16–20 h, 37 °C
How it was run: as §1

A. baumannii ATCC19606 = test system: A. baumannii ATCC19606
How it was run: as §1

PA14 2P4 (pmrB) = assay: microbe, parasite or virus in culture; conditions: supplementary CSV
How it was run: as §1

PA14 4.13 (phoQ) = assay: microbe, parasite or virus in culture; conditions: supplementary CSV
How it was run: as §1

PA14 4.18 (pmrB) = assay: microbe, parasite or virus in culture; conditions: supplementary CSV
How it was run: as §1

Enterobacter cloacae = assay: microbe, parasite or virus in culture; conditions: pH 7.4
How it was run: as §1

P. aeruginosa PA14 = assay: microbe, parasite or virus in culture
How it was run: as §1

P. aeruginosa ZEM-1A = assay: microbe, parasite or virus in culture; conditions: pH 7.4
How it was run: as §1

Burkolderia cenocepacia = assay: microbe, parasite or virus in culture; conditions: MDR strain; MH broth pH 7.4, 16–20 h, 37 °C
[3] = MH broth pH 7.4, 16–20 h, 37 °C
[4] = supplementary CSV, ranges of Table 1 given as one number

CC(C)C[C@H](NC(=O)[C@H](CC(C)C)NC(=O)[C@H](CC(C)C)NC(=O)[C@H](CCCCN)NC(=O)[C@@H](CC(C)C)NC(=O)[C@H](CC(C)C)NC(=O)[C@H](CCCCN)NC(=O)[C@@H](CC(C)C)NC(=O)[C@@H](CC(C)C)NC(=O)[C@@H](CCCCN)NC(=O)[C@@H](N)CCCCN)C(N)=O [HP11, KkllKLlKLLL]
MIC S. aureus Newman (S. aureus Newman; [3]): 2 µg/mL (≈ 1.51 µM) | MIC S. aureus Newmann (S. aureus Newman; supplementary CSV): 2 µg/mL (≈ 1.51 µM) | IC50 (HEK293 cells): 64.8 ± 4.3 µM | MIC ZEM9A (P. aeruginosa ZEM9A): 8 µg/mL (≈ 6.05 µM) | MIC Staphylococcus epidermis (Staphylococcus epidermis): 4 µg/mL (≈ 3.03 µM) | MIC K. pneumoniae Oxa-48 (K. pneumoniae Oxa-48): 4 µg/mL (≈ 3.03 µM) | MIC Stenotrophomonas maltophilia [1]: 4 µg/mL (≈ 3.03 µM) | MIC S. aureus COL MRSA (S. aureus COL MRSA; [3]): 2 µg/mL (≈ 1.51 µM) | MIC S. aureus COL (S. aureus COL MRSA; [4]): 2 µg/mL (≈ 1.51 µM) | MIC P. aeruginosa PAO1 (P. aeruginosa PAO1; [3]): 2 to 4 µg/mL | MIC P. aeruginosa PAO1 (P. aeruginosa PAO1; [4]): 3 µg/mL (≈ 2.27 µM) | MIC, span over the five bacterial strains [2]: 2 to 8 µg/mL | MIC K. pneumoniae NCTC418 (K. pneumoniae NCTC418; [3]): 4 to 8 µg/mL | MIC K. pneumoniae NCTC418 (K. pneumoniae NCTC418; [4]): 6 µg/mL (≈ 4.54 µM) | MIC E. coli W3110 (E. coli W3110): 2 µg/mL (≈ 1.51 µM) | MIC A. baumannii ATCC19606 (A. baumannii ATCC19606; [3]): 2 µg/mL (≈ 1.51 µM) | MIC A. baumannii ATCC19606 (A. baumannii ATCC19606; [4]): 2 µg/mL (≈ 1.51 µM) | MIC P. aeruginosaPA14 2P4 (PA14 2P4 (pmrB)): 16 µg/mL (≈ 12.1 µM) | MIC P. aeruginosa PA14 4.13 (PA14 4.13 (phoQ)): 2 µg/mL (≈ 1.51 µM) | MIC P. aeruginosa PA14 4.18 (PA14 4.18 (pmrB)): 8 µg/mL (≈ 6.05 µM) | MIC Enterobacter cloacae (Enterobacter cloacae): 4 µg/mL (≈ 3.03 µM) | MIC PA14 (P. aeruginosa PA14; [3]): 1 µg/mL (≈ 0.757 µM) | MIC P. aeruginosa PA14 (P. aeruginosa PA14; supplementary CSV): 1 µg/mL (≈ 0.757 µM) | MIC ZEM-1A (P. aeruginosa ZEM-1A): 2 µg/mL (≈ 1.51 µM) | MIC Burkolderia cenocepacia (Burkolderia cenocepacia): >64 µg/mL
